Test results published in US4103025A, “Novel terpenes” (Inverni Della Beffa S.p.A., priority 1974, dated 1978).

Assays:
[1] = tested on: Gastric ulcer induced by Shay's method; assay: Anti-ulcer activity - gastric ulcer in rats induced by Shay's method; assay type: in vivo; details: for Diminution of the ulcer index compared with the controls: 200 mg/kg orally five times; for Number of ulcers of class I / Number of ulcers of class II / Number of ulcers of class III / Number of ulcers of class IV / Number of ulcers of class V: 13 animals; for Percentage ulcer variation in relation to controls: Table 1; for Ulcer Index: controls 75; for Product of the number of ulcers and the numerical value attributed to the class, class I / Product of the number of ulcers and the numerical value attributed to the class, class II / Product of the number of ulcers and the numerical value attributed to the class, class III / Product of the number of ulcers and the numerical value attributed to the class, class IV / Product of the number of ulcers and the numerical value attributed to the class, class V: in parentheses
Protocol: Anti-ulcer activity - Gastric Ulcer in the rats induced by Shay's method
The anti-ulcer activity of sericic acid and sericoside was determined by administering the compounds to rats in which gastric ulcers were induced by Shay's method. The compounds were administered at the dose of 200 mg./kg. orally five times, at 42, 30, 25 and 6 hours before tying of the pylorus and immediately after the operation and as shown in Table 1 diminished the ulcer index by 48 and 45 per cent respectively, compared with the controls.
^(1) Doses administered orally 5 times, 42, 30, 25 and 6 hours prior
to and immediately after the tying of the pylorus.
^(2) In parentheses the product of the number of ulcers and the
numerical value attributed to the individual classes according to the
individual classes according to the evaluation criterion of T. O.
Keyrilainen and M. K. Paasonen (Acta Pharmacol. et. Toxicol. 13, 22, 1957

[2] = Relative solubility in chlorinated hydrocarbon and aqueous solvents; assay type: physicochemical; details: chlorinated hydrocarbon solvents versus water/aqueous solvents
Experimental wounds = assay: Cicatrizing activity upon experimental wounds in rats (method of Morton & Malone); assay type: in vivo; details: for Healing activity compared with the controls: especially in the first days of treatment; for Percentage remargination (Average ± S.D.), Day I / Percentage remargination (Average ± S.D.), Day II / Percentage remargination (Average ± S.D.), Day III / Percentage remargination (Average ± S.D.), Day V / Percentage remargination (Average ± S.D.), Day VI: topical 10% suspension in 2% CMC, 0.1 ml/rat/day; for Percentage remargination (Average ± S.D.), Day I: control 5.2 ± 1.1; for Percentage remargination (Average ± S.D.), Day II: control 12.8 ± 1.5; for Percentage remargination (Average ± S.D.), Day III: control 21.9 ± 3.1; for Percentage remargination (Average ± S.D.), Day V: control 39.63 ± 2.3; for Percentage remargination (Average ± S.D.), Day VI: control 57.4 ± 2.1
Protocol: Cicatrizing Activity Upon Experimental Wounds in Rats
The cicatrizing activity of sericic acid and sericoside upon experimental wounds was determined on rats in accordance with the method of Morton & Malone (Arch. Int. Pharmacodyn. Ther. 196, 117, 1972).
The treatment of the wounds was effected with a 10% suspension of the active principles in water containing 2% carboxymethyl cellulose (CMC). The suspensions were used in doses of 0.1 ml. for each application, one treatment being effected per day.
Note: Topical treatment effected on each of the days on which measurement
were taken (I, II, III, V, and VI).

[3] = tested on: Ultra-violet ray erythema; assay: Activity against ultra-violet ray erythema in guinea pigs (method of Winder et al.); assay type: in vivo, male albino guinea pigs; details: for Erythema Score, 2 h / Erythema Score, 4 h / Erythema Score, 6 h / Erythema Score, 8 h / Erythema Score, 22 h: 5% gel (200 mg) one hour prior to irradiation; for Erythema Score, 2 h: 0 = no erythema, 0.5 = moderate reddening, 1 = marked reddening, 2 = obvious erythema, controls 1.15 ± 0.17; for Erythema Score, 4 h: controls 2.40 ± 0.30; for Erythema Score, 6 h: controls 2.55 ± 0.34; for Erythema Score, 8 h: controls 2.35 ± 0.18; for Erythema Score, 22 h: controls 1.05 ± 0.23; for Percentage inhibition of erythema compared with the controls, 2 h / Percentage inhibition of erythema compared with the controls, 4 h / Percentage inhibition of erythema compared with the controls, 6 h / Percentage inhibition of erythema compared with the controls, 8 h / Percentage inhibition of erythema compared with the controls, 22 h: 5% gel (200 mg), in parentheses
Protocol: Activity Against Ultra-Violet Ray Erythema
Ultra-violet ray erythema in guinea pigs was effected in accordance with the method of Winder et al. (Arch. Int. Pharmacodyn, 106, 261, 1968).
Sericoside and sericic acid were applied to the depilated skin of male albino guinea pigs (average weight 300 - 400 g) in the form of a 5% gel (using 200 mg. thereof) one hour prior to irradiation. The animals were depilated 18 hours prior to the irradiation and irradiated for 3 minutes with a 500 W. mercury vapor lamp at a distance of 18 cms.

[4] = tested on: Carragenin-induced oedema; assay: Anti-inflammatory activity against carragenin-induced oedema in rats, oral administration; assay type: in vivo; details: 200 mg/kg orally for 3 days; for Percentage inhibition of the oedema: 3 hours after carragenin; for Volume of oedema (Average ± S.D.): maximum volume 3 hours after carragenin, controls 0.30 ± 0.005
Protocol: (§1) Anti-inflammatory Activity Against Carragenin-induced Oedema in Rats
(§2) The anti-inflammatory activities of sericoside and sericic acid were determined by measuring the extent to which the oedema caused by sub-plantar administration of carragenin to rats could be inhibited by prior oral and intraperitoneal administration of the substances.
^(1) Doses administered orally for 3 days; on the third day the
administration was effected two hours before the subplantar injection of
^(2) Maximum volume of the oedema measured 3 hours after the
subplantar injection of carragenin.

[5] = LD50 in mice (intraperitoneal); details: mouse, in vivo, ip, intraperitoneal administration
From the text: The LD50 in mice (as determined with intraperitoneal administration) for sericic acid and sericoside was as follows: […]

[6] = tested on: Carragenin-induced oedema; assay: Anti-inflammatory activity against carragenin-induced oedema in rats, intraperitoneal administration; assay type: in vivo; details: for Volume of the oedema (Average ± S.D.): maximum volume after 3 hours
Protocol: as §1, §2
(1) Administration endoperitoneally 30 minutes prior to the injection of
(2) Maximum volume measured after 3 hours.

[7] = 50 mg/kg endoperitoneally 30 minutes prior to carragenin
[8] = 50 mg/kg endoperitoneally 30 minutes prior to carragenin, controls 0.31 ± 0.006
[9] = 100 mg/kg endoperitoneally 30 minutes prior to carragenin

SMILES: CC1(C)CC[C@]2(C(=O)OC3O[C@H](CO)[C@@H](O)[C@H](O)[C@H]3O)CC[C@]3(C)C(=CC[C@@H]4[C@@]5(C)C[C@@H](O)[C@H](O)[C@](C)(CO)[C@@H]5CC[C@]43C)[C@@H]2[C@@H]1O (some centres unmarked)
- Diminution of the ulcer index compared with the controls [1]: 45 per cent
- Number of non-ulcerated stomachs (per cent) ([1]; 200 mg/kg orally, 5 times): 7.6 per cent
- Number of ulcers of class I ([1]; 200 mg/kg orally, 5 times): 369
- Number of ulcers of class II ([1]; 200 mg/kg orally, 5 times): 15
- Number of ulcers of class III ([1]; 200 mg/kg orally, 5 times): 1
- Number of ulcers of class IV ([1]; 200 mg/kg orally, 5 times): 0
- Number of ulcers of class V ([1]; 200 mg/kg orally, 5 times): 3
- Percentage ulcer variation in relation to controls ([1]; 200 mg/kg orally, 5 times): -48%
- Ulcer Index ([1]; 200 mg/kg orally, 5 times): 39.5
- Product of the number of ulcers and the numerical value attributed to the class, class I ([1]; 200 mg/kg orally, 5 times): 369
- Product of the number of ulcers and the numerical value attributed to the class, class II ([1]; 200 mg/kg orally, 5 times): 75
- Product of the number of ulcers and the numerical value attributed to the class, class III ([1]; 200 mg/kg orally, 5 times): 10
- Product of the number of ulcers and the numerical value attributed to the class, class IV ([1]; 200 mg/kg orally, 5 times): 0
- Product of the number of ulcers and the numerical value attributed to the class, class V ([1]; 200 mg/kg orally, 5 times): 60
- Relative solubility [2]: generally more soluble in aqueous solvents than chlorinated hydrocarbons
- Healing activity compared with the controls (Experimental wounds): significant healing activity
- Percentage remargination (Average ± S.D.), Day I (Experimental wounds): 13.9 ± 1.4%
- Percentage remargination (Average ± S.D.), Day II (Experimental wounds): 23.7 ± 1.5%
- Percentage remargination (Average ± S.D.), Day III (Experimental wounds): 36.8 ± 2.0%
- Percentage remargination (Average ± S.D.), Day V (Experimental wounds): 53.30 ± 2.8%
- Percentage remargination (Average ± S.D.), Day VI (Experimental wounds): 68.2 ± 2.1%
- Erythema Score, 2 h [3]: 0.75 ± 0.17
- Erythema Score, 4 h [3]: 1.70 ± 0.23
- Erythema Score, 6 h [3]: 1.95 ± 0.22
- Erythema Score, 8 h [3]: 1.30 ± 0.25
- Erythema Score, 22 h [3]: 0.70 ± 0.15
- Percentage inhibition of erythema compared with the controls, 2 h [3]: 34.8%
- Percentage inhibition of erythema compared with the controls, 4 h [3]: 29.2%
- Percentage inhibition of erythema compared with the controls, 6 h [3]: 23.5%
- Percentage inhibition of erythema compared with the controls, 8 h [3]: 44.7%
- Percentage inhibition of erythema compared with the controls, 22 h [3]: 33.3%
- Percentage inhibition of the oedema [4]: 26%
- Volume of oedema (Average ± S.D.) [4]: 0.22 ± 0.010 mL
- LD50 [5]: > 1000 mg/kg
- Percentage inhibition of the oedema [6, 7]: 35%
- Volume of the oedema (Average ± S.D.) [6, 8]: 0.20 ± 0.005 mL
- Percentage inhibition of the oedema [6, 9]: 67%

SMILES: CC1(C)CC[C@]2(C(=O)O)CC[C@]3(C)C(=CC[C@@H]4[C@@]5(C)C[C@@H](O)[C@H](O)[C@](C)(CO)[C@@H]5CC[C@]43C)[C@@H]2[C@@H]1O
- Diminution of the ulcer index compared with the controls [1]: 48 per cent
- Number of ulcers of class I ([1]; 200 mg/kg orally, 5 times): 279
- Number of ulcers of class II ([1]; 200 mg/kg orally, 5 times): 12
- Number of ulcers of class III ([1]; 200 mg/kg orally, 5 times): 3
- Number of ulcers of class IV ([1]; 200 mg/kg orally, 5 times): 2
- Number of ulcers of class V ([1]; 200 mg/kg orally, 5 times): 9
- Percentage ulcer variation in relation to controls ([1]; 200 mg/kg orally, 5 times): -45%
- Ulcer Index ([1]; 200 mg/kg orally, 5 times): 45
- Product of the number of ulcers and the numerical value attributed to the class, class I ([1]; 200 mg/kg orally, 5 times): 279
- Product of the number of ulcers and the numerical value attributed to the class, class II ([1]; 200 mg/kg orally, 5 times): 60
- Product of the number of ulcers and the numerical value attributed to the class, class III ([1]; 200 mg/kg orally, 5 times): 30
- Product of the number of ulcers and the numerical value attributed to the class, class IV ([1]; 200 mg/kg orally, 5 times): 40
- Product of the number of ulcers and the numerical value attributed to the class, class V ([1]; 200 mg/kg orally, 5 times): 180
- Relative solubility [2]: generally more soluble in chlorinated hydrocarbon solvents than in water
- Healing activity compared with the controls (Experimental wounds): significant healing activity
- Percentage remargination (Average ± S.D.), Day I (Experimental wounds): 10.4 ± 1.3%
- Percentage remargination (Average ± S.D.), Day II (Experimental wounds): 23.7 ± 2.3%
- Percentage remargination (Average ± S.D.), Day III (Experimental wounds): 36.9 ± 2.7%
- Percentage remargination (Average ± S.D.), Day V (Experimental wounds): 48.00 ± 1.5%
- Percentage remargination (Average ± S.D.), Day VI (Experimental wounds): 59.0 ± 2.2%
- Erythema Score, 2 h [3]: 0.95 ± 0.12
- Erythema Score, 4 h [3]: 1.80 ± 0.21
- Erythema Score, 6 h [3]: 2.05 ± 0.22
- Erythema Score, 8 h [3]: 1.35 ± 0.18
- Erythema Score, 22 h [3]: 0.60 ± 0.10
- Percentage inhibition of erythema compared with the controls, 2 h [3]: 17.4%
- Percentage inhibition of erythema compared with the controls, 4 h [3]: 25%
- Percentage inhibition of erythema compared with the controls, 6 h [3]: 19.6%
- Percentage inhibition of erythema compared with the controls, 8 h [3]: 42.5%
- Percentage inhibition of erythema compared with the controls, 22 h [3]: 42.8%
- Percentage inhibition of the oedema [4]: 23%
- Volume of oedema (Average ± S.D.) [4]: 0.23 ± 0.009 mL
- LD50 [5]: > 1000 mg/kg
- Percentage inhibition of the oedema [6, 7]: 25%
- Volume of the oedema (Average ± S.D.) [6, 8]: 0.23 ± 0.008 mL
- Percentage inhibition of the oedema [6, 9]: 64%
- Volume of the oedema (Average ± S.D.) ([6]; 100 mg/kg endoperitoneally 30 minutes prior to carragenin, controls 0.31 ± 0.010): 0.11 ± 0.006 mL
